In patent US5780303A, “Method and composition for treating thrombosis” (priority 1995, dated 1998):
Where two headings read alike, the source gives them in different places.

Columns and labels:
platelets [1] = assay: Platelet aggregation of small cyclic disulfide and lactam peptides; assay type: cell-based; conditions: for potency against platelet aggregation relative to 8×: comparator 8×
Description: (§1) Platelet aggregation was assessed using the method of Born, Nature 194:927-929 (1962), incorporated herein by reference. Briefly, the change in light transmission was measured through a stirred suspension of platelets in an aggregometer (Model 400 VS, Chrono-Log, Havertown, Pa., USA). […] In studies using thrombin, the PRP was gel-filtered on Sepharose 2B in divalent ion-free Tyrode's solution containing 2% BSA. For all studies, the reference standard was platelet-poor plasma, which was obtained by centrifuging PRP at 1000×g for 5 min.
All aggregation studies were performed at 37° C. with a constantly stirred suspension of 3×10^8 platelets/mL. (Platelet count was determined with the aid of a hemacytometer.) Peptides and stimulants were added to these suspensions in 1% dilutions. The PRP and gel-filtered platelets were used within three hours from the time of blood collection.

platelets [2] = assay: Ex vivo inhibition of platelet aggregation (Table IV); assay type: in vivo; conditions: dose per code
Description: Using the method described in Example V to measure ex vivo inhibition of platelet aggregation and the method described in Example VII to measure bleeding, four additional peptides were tested. These peptides included 11J, 11Q, 11K and 11V.

GP IIb/IIIa = GP IIb/IIIa (Homo sapiens, UniProt P05106+P08514); assay: Differential inhibition of ligand binding to GP IIb/IIIa; conditions: fibrinogen vs fibronectin and vitronectin
Sequence of GP IIb/IIIa (P08514 32-887 limits assumed): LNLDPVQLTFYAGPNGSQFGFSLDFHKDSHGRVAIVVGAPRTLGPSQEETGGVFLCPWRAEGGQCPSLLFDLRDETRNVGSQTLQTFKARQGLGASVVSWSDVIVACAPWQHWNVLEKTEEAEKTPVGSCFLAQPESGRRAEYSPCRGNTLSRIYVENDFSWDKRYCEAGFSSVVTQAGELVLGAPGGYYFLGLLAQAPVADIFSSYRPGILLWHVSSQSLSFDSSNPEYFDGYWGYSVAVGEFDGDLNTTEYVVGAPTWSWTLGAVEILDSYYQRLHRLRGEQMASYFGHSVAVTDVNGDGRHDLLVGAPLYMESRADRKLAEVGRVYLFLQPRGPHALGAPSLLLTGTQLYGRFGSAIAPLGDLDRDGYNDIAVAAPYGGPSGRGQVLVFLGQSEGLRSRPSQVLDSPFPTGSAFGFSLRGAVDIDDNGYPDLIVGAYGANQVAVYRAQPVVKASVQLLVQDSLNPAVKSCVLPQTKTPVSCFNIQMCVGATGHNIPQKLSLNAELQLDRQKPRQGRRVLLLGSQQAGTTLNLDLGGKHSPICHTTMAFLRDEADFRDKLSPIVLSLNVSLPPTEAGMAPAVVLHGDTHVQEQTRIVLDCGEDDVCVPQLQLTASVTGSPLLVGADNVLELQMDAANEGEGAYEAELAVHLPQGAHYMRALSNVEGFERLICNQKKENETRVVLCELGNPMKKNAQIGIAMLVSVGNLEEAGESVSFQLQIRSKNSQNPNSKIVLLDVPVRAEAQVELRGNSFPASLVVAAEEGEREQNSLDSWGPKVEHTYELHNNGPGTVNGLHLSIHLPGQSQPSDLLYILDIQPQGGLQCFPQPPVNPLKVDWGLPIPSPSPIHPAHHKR
Sequence of GP IIb/IIIa (P08514 891-1039 partner limits assumed): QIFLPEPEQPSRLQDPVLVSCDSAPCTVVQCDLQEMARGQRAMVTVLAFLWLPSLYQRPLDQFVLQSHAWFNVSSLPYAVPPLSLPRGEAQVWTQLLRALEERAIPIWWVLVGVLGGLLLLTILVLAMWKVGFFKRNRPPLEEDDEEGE
Sequence of GP IIb/IIIa (P05106 27-788): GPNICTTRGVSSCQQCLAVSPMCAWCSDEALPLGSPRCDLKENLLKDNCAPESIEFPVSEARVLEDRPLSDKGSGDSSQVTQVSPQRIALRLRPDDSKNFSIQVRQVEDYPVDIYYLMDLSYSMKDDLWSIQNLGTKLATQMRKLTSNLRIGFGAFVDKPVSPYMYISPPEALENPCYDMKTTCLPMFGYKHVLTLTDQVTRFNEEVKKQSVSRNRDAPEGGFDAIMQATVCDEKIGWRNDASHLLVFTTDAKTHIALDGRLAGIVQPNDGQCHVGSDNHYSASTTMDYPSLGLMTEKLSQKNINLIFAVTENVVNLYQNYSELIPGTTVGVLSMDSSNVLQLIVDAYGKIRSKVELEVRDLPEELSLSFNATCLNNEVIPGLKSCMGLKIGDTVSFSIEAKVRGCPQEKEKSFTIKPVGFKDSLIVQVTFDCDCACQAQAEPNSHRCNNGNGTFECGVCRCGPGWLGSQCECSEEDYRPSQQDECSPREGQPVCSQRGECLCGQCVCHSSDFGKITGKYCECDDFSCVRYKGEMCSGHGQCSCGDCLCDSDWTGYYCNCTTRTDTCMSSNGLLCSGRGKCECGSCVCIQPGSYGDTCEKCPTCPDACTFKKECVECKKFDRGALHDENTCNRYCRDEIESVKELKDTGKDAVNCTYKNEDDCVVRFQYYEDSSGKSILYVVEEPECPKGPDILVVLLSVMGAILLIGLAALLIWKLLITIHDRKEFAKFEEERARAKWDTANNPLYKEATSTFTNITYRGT

platelets [3] = assay: Ex vivo platelet aggregation in baboon PRP; conditions: animal 2; PRP at 0, 1, 2 h
Description: At one- and two-hour time points, template bleeding times were measured, and blood samples were drawn to assess the hematology aggregation studies. Platelet aggregation studies were performed as described in Example V using ADP as the stimulus.
In addition, platelet aggregation studies were conducted on PRP derived from the second animal. Whole blood was drawn at three time points (0, 1 and 2 hours) of both control and experimental shunts.

platelets [4] = assay: Ex vivo platelet aggregation in canine coronary thrombosis model; set-up: species or system dog
Description: For all ex vivo studies (see FIG. 3), control aggregation values were standardized to the percentages of light transmission observed in PRP and PPP samples (0% and 100%, respectively).
(§2) Animals were randomly assigned to two treatment groups: vehicle control (i.e., normal saline) or RGD peptides at various concentrations. Peptides were administered intra-atrially in both bolus and continuous injections. Each bolus injection consisted of 0.5 to 10 mg/kg and was administered 15 minutes before application of the current. A continuous infusion of the same peptide was then started immediately after completion of this initial injection. Animals received a 25 μg/kg/min to 200 μg/kg/min infusion. The anti-thrombotic effects of the peptides were monitored until 30 minutes after the occurrence of a persistent, occlusive thrombus or five hours after the initiation of electrical stimulation (whichever resulted first). If an occlusive thrombus had not developed within four hours after the initiation of current, the peptide infusion was stopped.
Platelet counts and ex vivo aggregation studies were performed one hour before and 1, 3, and 5 hours after application of anodal direct current.
Platelet aggregation was also determined ex vivo at one, three, and five hours after current application. For these studies, arachidonic acid, or collagen was again used to stimulate the platelets.

[5] = system: Gore-tex vascular graft thrombosis; assay: Platelet and fibrinogen uptake by Gore-Tex grafts, baboon ex vivo shunt; assay type: in vivo
Description: Adult male baboons (weighing 16 to 25 kg) were used in these studies. These were sedated with ketamine hydrochloride (200 to 250 mg intramuscular injection) and maintained under anesthesia with sodium pentobarbital (50 to 75 mg administered intravenously as necessary).
Twenty-four hours before the ex vivo shunt was established, platelets were isolated from 500 ml of blood from the test animal and labelled with ca. of 500 microcuries of indium-111 oxine (Medi+Physics, Emeryville, Calif.), which irreversibly and specifically binds to platelets with an efficiency of 50%. Immediately after labelling, these platelets were then injected back into the animal and allowed to circulate for 24 hours. Immediately before the start of the study, fibrinogen that had been isolated from the animal and labelled with iodine-131 (DuPont Nuclear, Boston, Mass.) was also injected back into the animal. Also at this time, baseline determinations of the clotting and template bleeding times were made, and blood samples were drawn for hematology studies.
To establish the ex vivo shunt, the femoral artery and vein were percutaneously cannulated with introducer catheters (KMA Inc., Mansfield, Mass.). The catheters were then connected to medical-grade, heparin-coatedsilastic tubing (2.59 mm internal diameter, (Extracorporeal Medical Specialties, Inc., King of Prussia, Pa.). […] Finally, a 5 cm-long test segment of a 4 mm (internal diameter) vascular graft was inserted at the apex of the circuit. The graft used in these studies was Gore-tex (expanded polytetrafluoroethylene, (W. L. Gore and Associates, Inc., Flagstaff, Ariz.). An electromagnetic flow probe was then inserted into the tubing circuit to measure blood flow, which was maintained at 100 ml/min. by varying the resistance imported by a partially occluding screw clamp that was distal to the probe. Finally, a 5 cm-long test segment of a 4 mm (internal diameter) vascular graft was inserted at the apex of the circuit. The graft used in these studies was Gore-tex (expanded polytetrafluoroethylene, W. L. Gore and Associates, Inc., Flagstaff, Ariz.).
Platelet deposition onto the grafts was monitored by dynamic scanning with a gamma camera (Sigma 400, Ohio Nuclear, Inc., Sohon, Ohio), which detects the gamma radiation emitted by the ^111 indium-labelled platelets. Once the circuit was in place, the animal was placed under this camera, and blood flow was initiated. Scans were then taken at the rate of one frame per two minutes for two hours. The data from these scans were collected on a dedicated Digital MDA computer (Maynard, Mass.). […]

coronary thrombosis = assay: Electrically induced canine coronary thrombosis, time to full occlusion; assay type: in vivo, dog
Description: Male mongrel dogs weighing 14 to 20 kg were selected based on proper aggregation of their platelets in response to arachidonic acid, collagen, and adenosine disphosphate (ADP) and based on similar weights and hemodynamic properties.
Before surgery, the animals were anesthetized with sodium pentobarbital (30 mg/kg, i.v.) and then intubated and ventilated on room air with positive pressure using a respirator (Harvard Apparatus, S. Natick, Mass.) at a volume of 30 ml/kg and a frequency of 12 breaths/min. Surgery, performed under aseptic conditions, was begun with the placement of cannulae into the left carotid artery and jugular vein for monitoring arterial blood pressure (Statham P23 pressure transducer, Gould, Inc., Cardiovascular Products, Oxnard, Calif.) and administering intravenous fluids.
The heart was exposed via a left thoracotomy through the 5th intercostal space. A 2-cm segment of the left circumflex coronary artery (LCCA) was isolated from surrounding tissue by blunt dissection. […] The intra-coronary electrode was constructed by attaching a 25-gauge hypodermic needle tip to a 30-gauge Teflon-insulated silver-coated copper wire. The mechanical occluder was constructed of stainless steel in a C shape with a Teflon screw (2 mm diameter) on top. It was adjusted to control vessel circumference and decrease the reactive hyperemic flow due to a 10-sec (full) occlusion by 50-70% without affecting basal coronary blood flow (FIG. 1). A monopolar epicardial electrode was sutured to the surface of the ventricle in the region of LCCA distribution to monitor ischemic changes in the electrocardiogram (ECG). The left atrium was cannulated with polythylene tubing for administration of the peptide. Continuous recordings of blood pressure, limb lead II ECG, epicardial electrogram, and mean and phasic LCCA blood flow were obtained on a Model 7 polygraph (Grass Instrument Co., Quincy, Mass.).
One hour after the completion of surgery, a 100 micro-amp continuous anodal direct current delivered from a 9 volt nickel-cadmium battery was applied to the intimal surface of the LCCA. The anode of the battery was in series with a 250,000 ohm potentiometer and the intraluminal coronary artery electrode. The electric circuit was completed by placing the cathode in a subcutaneous site. Electrical stimulation was applied for three hours. At the conclusion of each experiment, the heart was fibrillated electrically and quickly removed, and the LCCA was dissected free as far as possible to verify he position of the implanted anodal electrode.
as §2
Coronary thrombosis was quantified as the time to full occlusion. The effects of the various peptide treatments on coronary thrombosis is illustrated in FIG. 4.

platelets [6] = assay type: cell-based, human; conditions: ADP 10 μM, citrated PRP; unit only in text b178 (printed μm); read-out: ADP-Stimulated Aggregation
Description: Platelet aggregation assays were performed following the methods of this Example or those of Example IX.G. Platelet aggregation was assessed using the method of Born, Nature 194:927-929 (1962), incorporated herein by reference. Briefly, the change in light transmission was measured through a stirred suspension of platelets in an aggregometer (Model 400 VS, Chrono-Log, Havertown, Pa., USA). Studies employing ADP were performed with platelet-rich plasma (PRP), which was obtained by low-speed centrifugation (200×g for 10 min.) of whole blood freshly drawn into trisodium citrate (at a final concentration of 11 mm). In studies using thrombin, the PRP was gel-filtered on Sepharose 2B in divalent ion-free Tyroda's solution containing 2% BSA. For all studies, the reference standard was platelet-poor plasma, which was obtained by centrifuging PRP at 1000×g for 5 min.
All aggregation studies were performed at 37° C. with a constantly stirred suspension of 3×10^8 platelets/ml. (Platelet count was determined with the aid of a hemacytometer.) Peptides and stimulants were added to these suspensions in 1% dilutions. […]

platelets [7] = assay: Thrombin-stimulated platelet aggregation (Table I); assay type: cell-based, human; conditions: thrombin 2 U/ml, gel-filtered platelets; unit only in text b178 (printed μm)
Description: as §1, with “Platelet aggregation assays were performed following the methods of this Example or those of Example IX.G. Platelet” for “Platelet”, “Tyroda's” for “Tyrode's”
All aggregation studies were performed at 37° C. with a constantly stirred suspension of 3×10^8 platelets/ml. (Platelet count was determined with the aid of a hemacytometer.) Peptides and stimulants were added to these suspensions in 1% dilutions. The PRP and gel-filtered platelets were used within three hours from the time of blood collection.
Peptide anti-aggregation potencies were determined from dose-responsive curves for the inhibition of the maximum aggregation responses stimulated by physiologic doses of ADP (10 μm) and thrombin (2 U/ml).

[8] = Peripheral blood flow (PBF) by laser doppler probe, rabbit ear; assay type: in vivo; conditions: time 10 min; bolus dose per drug
Description: In an alternative series of experiments, (Table 2) PBF was measured quantitatively with a laser dopler flow probe (Perimed). The probe was positioned securely over the vascular bed of one ear and flow monitored continuously. Each inhibitor was infused and CBT measured in the opposing ear. No arterial catheter was placed for blood sampling, consequently XPA […] in these animals.
As positive control, epinephrine was infused intravenously (1 mg over 2 minutes) at 60 minutes. The resulting vasoconstriction reduced flow to near 0 flow units within 5 minutes.

[9] = animal 1, two bolus IV injections of 10 mg/kg
[10] = animal 2, 10 mg/kg bolus IV plus 10 mg/kg/hr infusion for 2 h

## (Myr)RGD(O-Me-Y)RC-NH2 [16A]
Platelets [1]
  potency against platelet aggregation relative to 8×: about two-fold more reactivity than 8×
Platelets [1]; read-out: inhibited platelet aggregation with an IC50
  IC50: 0.12 µM

## Ac-CNPKGD(Y-OMe)RC-NH2 [11Q]
Platelets [2]
  ex vivo inhibition of platelet aggregation (%): > 95%

## Ac-CNPRGD(Y-OMe)(Nle)C-NH2 [11V]
Platelets [2]
  ex vivo inhibition of platelet aggregation (%): > 98%

## Ac-CNPRGD(Y-OMe)AC-NH2 [11K]
Platelets [2]
  ex vivo inhibition of platelet aggregation (%): > 98%

## Ac-CNPRGD(Y-OMe)EC-NH2 [11J]
Platelets [2]
  ex vivo inhibition of platelet aggregation (%): > 98%

## Ac-CNPRGD(Y-OMe)RCNH2 [8x]
GP IIb/IIIa
  differential inhibition of binding of ligands to GP IIb/IIIa: inhibits the binding of fibrinogen to GP IIb/IIIa more than it inhibits the binding of fibronectin and vitronectin to the same integrin

## G(Pen)GHRGDLRCA [2G]
Platelets [3]
  ex vivo platelet response to ADP (10 μM): completely unresponsive
Platelets [4]; 10 mg/kg, 1, 3, 5 h
  ex vivo ADP-stimulated aggregation: substantially inhibited
[5]; [9]
  reduction in 111In-platelet uptake by graft: 90%
  reduction in 131I-fibrinogen uptake by graft: 79%
[5]; [10]
  reduction in labelled fibrinogen uptake by graft: 78%
  reduction in labelled platelet uptake by graft: 84%
Coronary thrombosis; 10 mg/kg bolus plus infusion
  time to full occlusion (coronary thrombosis): did not significantly influence this frequency

## G(dPen)GHRGDLRCA
Platelets [6]
  IC50: 5.28 ± 0.7 µM

## R2 (Pen)GHGDTPCA
Platelets [6]
  IC50: 8.2 µM
Platelets [7]
  IC50: 2.7 µM

## R(Pen)GHRGDWRCR [4Q]
Platelets [4]; 5 mg/kg
  ex vivo platelet activation by collagen: near-maximal inhibition
Platelets [4]; 5 mg/kg, all three time points
  ex vivo platelet response to ADP and AA: completely unresponsive
Platelets [4]; 10 mg/kg, five-hour point
  ex vivo platelet responsiveness: platelet responsiveness was slightly improved
Platelets [4]; 10 mg/kg, one- and three-hour time points
  ex vivo platelet aggregation, all three stimuli: prevented platelet aggregation
Coronary thrombosis; 5 mg/kg
  time to full occlusion (coronary thrombosis): significantly prolonged the time to occlusion
Coronary thrombosis; 5 mg/kg, circulating platelet levels one-third of normal
  thrombus formation: able to prevent thrombus formation
Coronary thrombosis; 10 mg/kg bolus plus infusion
  time to full occlusion (coronary thrombosis): completely prevented occlusion
[8]
  PBF (units): 9 units

## R(Pen)GRGDWPCR [4R]
Platelets [4]; 10 mg/kg, all time points
  ex vivo platelet response, all modes of stimulation: unresponsive to all modes of stimulation at all time points
Coronary thrombosis; 3 mg/kg
  time to full occlusion (coronary thrombosis): ineffective
Coronary thrombosis; 10 mg/kg bolus plus infusion
  time to full occlusion (coronary thrombosis): prevented occlusion throughout the duration of the study

## RGD(O-Me-Y)RE-NH2 [21I]
Platelets [1]
  potency against platelet aggregation relative to 8×: about three-fold more reactive than 8×
